Experiments:
Type in all cases: cell-based, rabbit
[1] = target: T1, α1B channel (voltage-dependent calcium channel α1B with α2δ1 and β1b) (Oryctolagus cuniculus, UniProt Q05152); experiment: two electrode voltage-clamp, Ba2+ current in Xenopus oocytes expressing α1B channel
T1 construct: expressed in transfected cells; host or cells: Xenopus laevis oocytes injected with mRNAs
Protocol: (§1) Ovary was removed from the abdominal cavity of Xenopus laevis and treated with collagenase to remove follicle covering the oocyte (Kinoshita et al., J. Biol. Chem. 276, 28731-28738 (2001)). A combination of three kinds of mRNAs (16.7 ng each) of voltage-dependent calcium channel subunits α1A, α1B or α1E of rabbit and human α2δ1 and β1b (prepared according to the method described in Kinoshita et al., supra or a similar method) was mixed and injected into the oocyte and this was incubated in modified Birth's saline (88 mM NaCl, 1 mM KCl, 0.41 mM CaCl2, 0.33 mM Ca(NO3)2, 0.82 mM MgSO4, 2.4 mM NaHCO3, 7.5 mM Tris-HCl, 10 U/ml penicillin, 10 μg/ml streptomycin, pH 7.6) at 22° C. for 2 to 4 days.
(§2) The oocyte prepared in the above was placed in a chamber filled with a Ba^2+-containing recording liquid (10 mM Ba(OH)2, 90 mM NaOH, 2 mM KOH, 5 mM Hepes, 0.3 mM niflumic acid, methanesulfonic acid, pH 7.4) and fixed at −80 mV using two glass electrodes. A test pulse (200 ms width) toward 0 mV was applied at 30 second intervals and the whole-cell membrane current was measured. A +100 mV depolarization prepulse (100 ms width) that ends before 40 ms was applied every other pulse to eliminate the effect of G protein βγ subunit that binds with Ca^2+ channel to suppress opening (Kinoshita et al., supra). Based on the Ba^2+ current (IBa) as a Ca^2+ channel current, the leak current was corrected by P/4 protocol. N-(4-Acetyl-1-piperazinyl)-p-fluorobenzamide monohydrate (hereinafter to be also referred to as a test compound) was dissolved in the recording liquid containing Ba^2+ and applied.

[2] = target: T2, α1E channel (voltage-dependent calcium channel α1E with α2δ1 and β1b) (Oryctolagus cuniculus, UniProt Q02343); experiment: two electrode voltage-clamp, Ba2+ current in Xenopus oocytes expressing α1E channel; conditions: 100 nM test compound; 0 mV, 200 ms test pulse; Xenopus oocyte
T2 construct: expressed in transfected cells; host or cells: Xenopus laevis oocytes injected with mRNAs
Protocol: as §1
as §2, with “Based on the Ba^2+ current (IBa) as a Ca^2+ channel current, the leak current was corrected by P/4 protocol. N-(4-Acetyl-1-piperazinyl)-p-fluorobenzamide monohydrate (hereinafter to be also referred to as a test compound) was dissolved in the recording liquid containing Ba^2+ and applied.” left out

[3] = target: T3, α1A channel (voltage-dependent calcium channel α1A with α2δ1 and β1b) (Oryctolagus cuniculus, UniProt P27884); experiment: two electrode voltage-clamp, Ba2+ current in Xenopus oocytes expressing α1A channel; conditions: 100 nM test compound; 0 mV, 200 ms test pulse; Xenopus oocyte
T3 construct: expressed in transfected cells; host or cells: Xenopus laevis oocytes injected with mRNAs
Protocol: as §1
as §2, with “Based on the Ba^2+ current (IBa) as a Ca^2+ channel current, the leak current was corrected by P/4 protocol. N-(4-Acetyl-1-piperazinyl)-p-fluorobenzamide monohydrate (hereinafter to be also referred to as a test compound) was dissolved in the recording liquid containing Ba^2+ and applied.” left out

T1 sequence (Q05152 whole entry): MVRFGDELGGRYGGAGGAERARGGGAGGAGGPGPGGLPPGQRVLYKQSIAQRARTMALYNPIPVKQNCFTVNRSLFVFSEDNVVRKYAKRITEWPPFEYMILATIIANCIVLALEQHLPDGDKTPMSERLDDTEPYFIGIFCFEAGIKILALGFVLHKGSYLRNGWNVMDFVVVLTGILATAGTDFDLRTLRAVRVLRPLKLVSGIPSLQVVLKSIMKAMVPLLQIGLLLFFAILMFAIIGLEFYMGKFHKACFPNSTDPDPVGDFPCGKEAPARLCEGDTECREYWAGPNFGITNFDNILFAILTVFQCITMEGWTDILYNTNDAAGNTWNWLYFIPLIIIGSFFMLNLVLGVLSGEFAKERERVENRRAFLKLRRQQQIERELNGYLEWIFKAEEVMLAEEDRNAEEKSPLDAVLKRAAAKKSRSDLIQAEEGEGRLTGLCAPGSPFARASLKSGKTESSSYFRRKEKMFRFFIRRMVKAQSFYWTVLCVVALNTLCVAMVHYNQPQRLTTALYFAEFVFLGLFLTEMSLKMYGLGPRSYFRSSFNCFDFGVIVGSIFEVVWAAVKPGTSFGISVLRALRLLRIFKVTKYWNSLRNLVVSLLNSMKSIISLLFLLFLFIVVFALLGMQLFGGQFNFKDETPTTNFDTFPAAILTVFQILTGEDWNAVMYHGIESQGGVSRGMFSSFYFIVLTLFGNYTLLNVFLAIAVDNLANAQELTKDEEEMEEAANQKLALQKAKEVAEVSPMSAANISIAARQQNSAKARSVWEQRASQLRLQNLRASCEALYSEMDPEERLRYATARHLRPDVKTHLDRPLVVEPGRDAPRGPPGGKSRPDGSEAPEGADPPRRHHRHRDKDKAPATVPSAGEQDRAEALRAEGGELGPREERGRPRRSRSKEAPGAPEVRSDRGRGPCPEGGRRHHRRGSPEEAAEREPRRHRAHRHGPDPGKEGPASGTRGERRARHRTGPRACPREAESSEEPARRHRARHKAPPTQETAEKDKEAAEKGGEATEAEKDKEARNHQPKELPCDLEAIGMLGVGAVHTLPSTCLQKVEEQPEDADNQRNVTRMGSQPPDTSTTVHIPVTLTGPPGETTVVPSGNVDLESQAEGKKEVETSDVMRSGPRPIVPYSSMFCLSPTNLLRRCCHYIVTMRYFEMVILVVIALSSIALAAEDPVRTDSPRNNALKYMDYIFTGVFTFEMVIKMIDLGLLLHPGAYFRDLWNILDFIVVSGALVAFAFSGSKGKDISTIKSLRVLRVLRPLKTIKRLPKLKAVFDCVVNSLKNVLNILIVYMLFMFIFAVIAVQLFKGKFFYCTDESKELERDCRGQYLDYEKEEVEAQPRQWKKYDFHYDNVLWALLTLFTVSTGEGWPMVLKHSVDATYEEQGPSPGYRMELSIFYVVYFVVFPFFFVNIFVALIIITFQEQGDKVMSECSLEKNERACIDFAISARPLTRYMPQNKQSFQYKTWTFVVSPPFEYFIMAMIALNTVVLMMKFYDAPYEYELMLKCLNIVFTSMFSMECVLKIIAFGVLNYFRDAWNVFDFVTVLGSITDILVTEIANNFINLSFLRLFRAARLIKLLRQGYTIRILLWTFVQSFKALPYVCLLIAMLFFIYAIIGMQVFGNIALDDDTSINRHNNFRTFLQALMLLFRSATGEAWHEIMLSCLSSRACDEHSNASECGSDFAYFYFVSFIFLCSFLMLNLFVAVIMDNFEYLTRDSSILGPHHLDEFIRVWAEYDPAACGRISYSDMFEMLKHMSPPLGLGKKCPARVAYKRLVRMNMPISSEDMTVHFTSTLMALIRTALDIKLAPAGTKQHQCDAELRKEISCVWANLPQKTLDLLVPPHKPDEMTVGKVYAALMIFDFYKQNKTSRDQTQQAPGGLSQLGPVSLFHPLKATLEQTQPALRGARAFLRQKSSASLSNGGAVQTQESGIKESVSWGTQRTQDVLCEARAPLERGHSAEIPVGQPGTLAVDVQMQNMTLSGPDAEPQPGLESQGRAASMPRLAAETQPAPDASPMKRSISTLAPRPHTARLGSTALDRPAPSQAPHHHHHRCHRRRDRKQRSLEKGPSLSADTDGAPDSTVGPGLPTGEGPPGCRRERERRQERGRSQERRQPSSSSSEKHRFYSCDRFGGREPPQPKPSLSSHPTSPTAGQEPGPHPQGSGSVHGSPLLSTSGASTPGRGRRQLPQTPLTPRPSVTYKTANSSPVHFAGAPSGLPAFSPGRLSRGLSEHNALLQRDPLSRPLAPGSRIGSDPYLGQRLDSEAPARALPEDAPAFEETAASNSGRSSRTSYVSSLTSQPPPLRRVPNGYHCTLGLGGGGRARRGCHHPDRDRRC
T1 sequence (P54289 25-956 partner): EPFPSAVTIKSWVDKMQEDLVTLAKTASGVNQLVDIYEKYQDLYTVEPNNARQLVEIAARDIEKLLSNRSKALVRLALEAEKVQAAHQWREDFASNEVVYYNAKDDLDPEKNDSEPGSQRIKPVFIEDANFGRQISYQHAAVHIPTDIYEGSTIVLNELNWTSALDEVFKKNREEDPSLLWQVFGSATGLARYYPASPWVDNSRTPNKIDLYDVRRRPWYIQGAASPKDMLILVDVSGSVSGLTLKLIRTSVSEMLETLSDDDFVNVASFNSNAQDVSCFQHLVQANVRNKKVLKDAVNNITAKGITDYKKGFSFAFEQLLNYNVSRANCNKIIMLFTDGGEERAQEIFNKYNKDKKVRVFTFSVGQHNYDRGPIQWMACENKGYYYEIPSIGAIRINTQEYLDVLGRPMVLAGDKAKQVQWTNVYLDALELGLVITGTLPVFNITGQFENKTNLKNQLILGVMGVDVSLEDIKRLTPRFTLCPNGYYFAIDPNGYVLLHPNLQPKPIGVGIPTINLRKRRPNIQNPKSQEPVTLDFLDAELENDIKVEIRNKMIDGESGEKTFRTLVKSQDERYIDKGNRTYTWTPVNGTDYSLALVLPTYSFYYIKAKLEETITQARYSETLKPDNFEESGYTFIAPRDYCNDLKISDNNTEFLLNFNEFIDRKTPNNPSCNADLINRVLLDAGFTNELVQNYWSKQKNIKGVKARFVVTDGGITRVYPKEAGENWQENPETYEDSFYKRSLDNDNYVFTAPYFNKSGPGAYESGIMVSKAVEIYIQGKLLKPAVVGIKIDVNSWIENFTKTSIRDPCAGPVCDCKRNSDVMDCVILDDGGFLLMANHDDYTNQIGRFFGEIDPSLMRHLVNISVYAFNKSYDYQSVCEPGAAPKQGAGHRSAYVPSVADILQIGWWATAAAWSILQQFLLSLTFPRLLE
T1 sequence (P54289 957-1103 partner): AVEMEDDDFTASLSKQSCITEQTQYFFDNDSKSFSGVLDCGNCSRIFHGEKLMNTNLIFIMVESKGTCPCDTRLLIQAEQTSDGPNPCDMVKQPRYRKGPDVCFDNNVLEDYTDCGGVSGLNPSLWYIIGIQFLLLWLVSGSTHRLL
T1 sequence (Q02641 whole entry partner): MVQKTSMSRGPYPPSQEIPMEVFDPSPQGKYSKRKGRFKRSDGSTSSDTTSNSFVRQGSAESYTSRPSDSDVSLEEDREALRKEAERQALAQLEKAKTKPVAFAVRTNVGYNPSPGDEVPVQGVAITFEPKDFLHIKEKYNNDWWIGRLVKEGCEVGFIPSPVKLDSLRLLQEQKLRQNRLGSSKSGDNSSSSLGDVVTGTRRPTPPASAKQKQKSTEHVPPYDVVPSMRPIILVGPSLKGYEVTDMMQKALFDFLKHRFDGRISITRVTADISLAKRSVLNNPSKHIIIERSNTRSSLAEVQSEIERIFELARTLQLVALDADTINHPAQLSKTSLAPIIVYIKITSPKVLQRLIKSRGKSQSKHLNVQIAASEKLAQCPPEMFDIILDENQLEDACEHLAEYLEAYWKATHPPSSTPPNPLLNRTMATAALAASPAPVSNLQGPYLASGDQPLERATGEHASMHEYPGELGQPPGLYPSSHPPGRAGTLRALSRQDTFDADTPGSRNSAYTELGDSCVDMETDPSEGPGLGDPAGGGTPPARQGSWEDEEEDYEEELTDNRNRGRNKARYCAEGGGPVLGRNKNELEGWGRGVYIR

Compound: CC(=O)N1CCN(NC(=O)c2ccc(F)cc2)CC1.O [test compound, N-(4-Acetyl-1-piperazinyl)-p-fluorobenzamide monohydrate]
- effect on α1B channel current ([1]; 100 nM test compound, 0 mV, 200 ms test pulse, Xenopus oocyte): increase in the current
- influence on the voltage-dependency of α1B channel activation/inactivation ([1]; 100 nM test compound, varied depolarization stimulating potential and steady inactive state): almost no influence
- α1B channel current after return into basal solution and washing ([1]; after 100 nM test compound, washed): fell to the same level as that before the treatment
- potentiation of the current amplitude, channel specificity and concentration range ([1]; various concentrations, compared with α1A and α1E channels): α1B channel-specific potentiation of the current amplitude in a relatively narrow concentration range
- effect on α1E channel current [2]: almost no effect
- effect on α1A channel current [3]: almost no effect

From patent US20060009470A1, “Method for specifically potentiating N-type Ca2+ channel activity” (Shuji KANEKO, priority 2001, published 2006)
